Experiments:
[1] = tested on: ASPC-1 tumor-bearing mice; test: Biodistribution of radionuclide labeled complexes in ASPC-1 tumor-bearing mice; type: in vivo, BALB/c nude mice
Procedure, shortened: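 Radiolabeled compound (~30-50 μCi, ~1.11-1.85 MBq, specific activity 30-250 μCi/nmol) was injected i.v. via tail vein into nude mice carrying 0.05-0.50 g subcutaneous NTSR-1-positive human tumors. At set times, tissues were collected, weighed and γ-counted; % ID and % ID/g were calculated.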

HT-29 tumor-bearing mice = test: Biodistribution of radionuclide labeled complexes in HT-29 tumor-bearing mice; type: in vivo, BALB/c nude mice
Description: The BALB/c nude mice (Charles River, Beijing) were utilized to establish the xenografted model for biodistribution study. All animal care and experimental procedure were performed by following the animal protocols approved by the ethics committee of China Institute of Radiation Protection.
Briefly, each mouse was inoculated with approximately 4×10^6 ASPC-1 cells (human pancreatic cancer cell line) or HT-29 cells (human colorectal adenocarcinoma cell line) expressing human NTSR-1 by subcutaneous injection at rear flank. After inoculation, the xenografted tumors were allowed to grow for ˜2-4 weeks till the tumor weight reached to about 0.05 to 0.50 g (0.20 g in average).
Biodistribution studies were performed by administrating the radionuclide labeled test compound at a dose of ˜30-50 μCi (100 μL in 0.9% NaCl, ˜1.11-1.85 MBq, with specific activity 30-250 μCi/nmol) to each animal through tail vein injection.
At different time points after the administration, the mice treated with each compound were euthanized. The tissues and organs of the animals in each group were collected, excised, weighed, and analyzed in a PerkinElmer 2480 WIZARD2γ counter, and the percent injected dose (% ID) and % ID/g of each organ or tissue were calculated.

[2] = tested on: ASPC-1 tumor-bearing mice; test: SPECT/CT imaging of ^177Lu-labeled complexes; type: in vivo; conditions: over 72 hours
Description: ASPC-1 tumor-bearing mice were IV-injected with about 120 μCi of ^177Lu-labeled complexes, then anesthetized under 2% isoflurane/oxygen gas and placed on the scanner. SPECT/CT images were acquired in three bed positions for 30 min using a MILabs SPECT scanner. Whole-body SPECT images were acquired at 1 h, 4 h, 24 and 72 h after injecting the radiotracers.

COc1cccc(OC)c1-c1cc(C(=O)NC2(C(=O)O)C3CC4CC(C3)CC2C4)nn1-c1ccc(NC(=O)CCCN(C)CCCN(C)C(=O)CN2CCN(CC(=O)[O-])CCN(CC(=O)[O-])CCN(CC(=O)[O-])CC2)cc1C(C)C.[177Lu+3] (stereo not shown) [^177Lu-I-5]
tumor AUC over 72 hours compared to ^177Lu—C2 [1]: significantly higher tumor AUC | % ID/g (4 h) Blood ([1]; Blood, 4 h): 15.51 ± 0.77 % ID/g | % ID/g (24 h) Blood ([1]; Blood, 24 h): 0.09 ± 0.01 % ID/g | % ID/g (72 h) Blood ([1]; Blood, 72 h): 0.02 ± 0 % ID/g | % ID/g (4 h) Femur ([1]; Femur, 4 h): 2.21 ± 0.63 % ID/g | % ID/g (24 h) Femur ([1]; Femur, 24 h): 0.38 ± 0.23 % ID/g | % ID/g (72 h) Femur ([1]; Femur, 72 h): 0.17 ± 0.09 % ID/g | % ID/g (4 h) Heart ([1]; Heart, 4 h): 2.82 ± 1.88 % ID/g | % ID/g (24 h) Heart ([1]; Heart, 24 h): 2.18 ± 2.71 % ID/g | % ID/g (72 h) Heart ([1]; Heart, 72 h): 0.15 ± 0.13 % ID/g | % ID/g (4 h) Intestine ([1]; Intestine, 4 h): 1.81 ± 0.87 % ID/g | % ID/g (24 h) Intestine ([1]; Intestine, 24 h): 0.82 ± 0.31 % ID/g | % ID/g (72 h) Intestine ([1]; Intestine, 72 h): 0.51 ± 0.04 % ID/g | % ID/g (4 h) Kidney ([1]; Kidney, 4 h): 4.57 ± 2.28 % ID/g | % ID/g (24 h) Kidney ([1]; Kidney, 24 h): 1.37 ± 0.17 % ID/g | % ID/g (72 h) Kidney ([1]; Kidney, 72 h): 1.29 ± 0.49 % ID/g | % ID/g (4 h) Liver ([1]; Liver, 4 h): 3.87 ± 2.36 % ID/g | % ID/g (24 h) Liver ([1]; Liver, 24 h): 1.27 ± 0.29 % ID/g | % ID/g (72 h) Liver ([1]; Liver, 72 h): 0.96 ± 0.07 % ID/g | % ID/g (4 h) Lung ([1]; Lung, 4 h): 1.841 ± 0.07 % ID/g | % ID/g (24 h) Lung ([1]; Lung, 24 h): 0.33 ± 0.06 % ID/g | % ID/g (72 h) Lung ([1]; Lung, 72 h): 0.23 ± 0.07 % ID/g | % ID/g (4 h) Muscle ([1]; Muscle, 4 h): 1.29 ± 0.37 % ID/g | % ID/g (24 h) Muscle ([1]; Muscle, 24 h): 0.17 ± 0.08 % ID/g | % ID/g (72 h) Muscle ([1]; Muscle, 72 h): 0.05 ± 0.01 % ID/g | % ID/g (4 h) Pancreas ([1]; Pancreas, 4 h): 1.57 ± 0.5 % ID/g | % ID/g (24 h) Pancreas ([1]; Pancreas, 24 h): 0.3 ± 0.24 % ID/g | % ID/g (72 h) Pancreas ([1]; Pancreas, 72 h): 0.1 ± 0.04 % ID/g | % ID/g (4 h) Spleen ([1]; Spleen, 4 h): 2.39 ± 1.4 % ID/g | % ID/g (24 h) Spleen ([1]; Spleen, 24 h): 0.63 ± 0.05 % ID/g | % ID/g (72 h) Spleen ([1]; Spleen, 72 h): 0.34 ± 0.04 % ID/g | % ID/g (4 h) Stomach ([1]; Stomach, 4 h): 3.52 ± 0.4 % ID/g | % ID/g (24 h) Stomach ([1]; Stomach, 24 h): 0.28 ± 0.2 % ID/g | % ID/g (72 h) Stomach ([1]; Stomach, 72 h): 0.15 ± 0.05 % ID/g | % ID/g (4 h) Tumor ([1]; Tumor, 4 h): 27.56 ± 12.51 % ID/g | % ID/g (24 h) Tumor ([1]; Tumor, 24 h): 36.67 ± 18.25 % ID/g | % ID/g (72 h) Tumor ([1]; Tumor, 72 h): 12.83 ± 4.23 % ID/g | ratio of tumor AUC verse normal organ AUC ([1]; compared to ^177Lu—C2): significantly improved | % ID/g (1 h) Blood (HT-29 tumor-bearing mice; Blood, 1 h): 20.4 ± 1.06 % ID/g | % ID/g (4 h) Blood (HT-29 tumor-bearing mice; Blood, 4 h): 9.07 ± 1.42 % ID/g | % ID/g (24 h) Blood (HT-29 tumor-bearing mice; Blood, 24 h): 0.07 ± 0.02 % ID/g | % ID/g (72 h) Blood (HT-29 tumor-bearing mice; Blood, 72 h): 0.09 ± 0.07 % ID/g | % ID/g (120 h) Blood (HT-29 tumor-bearing mice; Blood, 120 h): 0.01 ± 0 % ID/g | % ID/g (1 h) Femur (HT-29 tumor-bearing mice; Femur, 1 h): 1.84 ± 1.19 % ID/g | % ID/g (4 h) Femur (HT-29 tumor-bearing mice; Femur, 4 h): 0.99 ± 0.18 % ID/g | % ID/g (24 h) Femur (HT-29 tumor-bearing mice; Femur, 24 h): 0.29 ± 0.1 % ID/g | % ID/g (72 h) Femur (HT-29 tumor-bearing mice; Femur, 72 h): 0.73 ± 0.82 % ID/g | % ID/g (120 h) Femur (HT-29 tumor-bearing mice; Femur, 120 h): 0.13 ± 0.05 % ID/g | % ID/g (1 h) Heart (HT-29 tumor-bearing mice; Heart, 1 h): 5.76 ± 1.66 % ID/g | % ID/g (4 h) Heart (HT-29 tumor-bearing mice; Heart, 4 h): 3.15 ± 0.43 % ID/g | % ID/g (24 h) Heart (HT-29 tumor-bearing mice; Heart, 24 h): 0.31 ± 0.07 % ID/g | % ID/g (72 h) Heart (HT-29 tumor-bearing mice; Heart, 72 h): 0.89 ± 0.56 % ID/g | % ID/g (120 h) Heart (HT-29 tumor-bearing mice; Heart, 120 h): 0.13 ± 0.02 % ID/g | % ID/g (1 h) Intestine (HT-29 tumor-bearing mice; Intestine, 1 h): 2.59 ± 0.76 % ID/g | % ID/g (4 h) Intestine (HT-29 tumor-bearing mice; Intestine, 4 h): 1.7 ± 0.53 % ID/g | % ID/g (24 h) Intestine (HT-29 tumor-bearing mice; Intestine, 24 h): 0.7 ± 0.39 % ID/g | % ID/g (72 h) Intestine (HT-29 tumor-bearing mice; Intestine, 72 h): 1.33 ± 0.88 % ID/g | % ID/g (120 h) Intestine (HT-29 tumor-bearing mice; Intestine, 120 h): 0.17 ± 0.06 % ID/g | % ID/g (1 h) Kidney (HT-29 tumor-bearing mice; Kidney, 1 h): 4.34 ± 2.82 % ID/g | % ID/g (4 h) Kidney (HT-29 tumor-bearing mice; Kidney, 4 h): 3.22 ± 1.54 % ID/g | % ID/g (24 h) Kidney (HT-29 tumor-bearing mice; Kidney, 24 h): 2.61 ± 0.72 % ID/g | % ID/g (72 h) Kidney (HT-29 tumor-bearing mice; Kidney, 72 h): 3.55 ± 2.21 % ID/g | % ID/g (120 h) Kidney (HT-29 tumor-bearing mice; Kidney, 120 h): 0.81 ± 0.23 % ID/g | % ID/g (1 h) Liver (HT-29 tumor-bearing mice; Liver, 1 h): 5.26 ± 1.02 % ID/g | % ID/g (4 h) Liver (HT-29 tumor-bearing mice; Liver, 4 h): 4.41 ± 1.88 % ID/g | % ID/g (24 h) Liver (HT-29 tumor-bearing mice; Liver, 24 h): 2.21 ± 0.36 % ID/g | % ID/g (72 h) Liver (HT-29 tumor-bearing mice; Liver, 72 h): 4.44 ± 3.4 % ID/g | % ID/g (120 h) Liver (HT-29 tumor-bearing mice; Liver, 120 h): 0.55 ± 0.3 % ID/g | % ID/g (1 h) Lung (HT-29 tumor-bearing mice; Lung, 1 h): 9.85 ± 2.58 % ID/g | % ID/g (4 h) Lung (HT-29 tumor-bearing mice; Lung, 4 h): 3.88 ± 1.04 % ID/g | % ID/g (24 h) Lung (HT-29 tumor-bearing mice; Lung, 24 h): 0.62 ± 0.32 % ID/g | % ID/g (72 h) Lung (HT-29 tumor-bearing mice; Lung, 72 h): 0.5 ± 0.19 % ID/g | % ID/g (120 h) Lung (HT-29 tumor-bearing mice; Lung, 120 h): 0.12 ± 0.1 % ID/g | % ID/g (1 h) Muscle (HT-29 tumor-bearing mice; Muscle, 1 h): 1.07 ± 0.14 % ID/g | % ID/g (4 h) Muscle (HT-29 tumor-bearing mice; Muscle, 4 h): 0.66 ± 0.21 % ID/g | % ID/g (24 h) Muscle (HT-29 tumor-bearing mice; Muscle, 24 h): 0.12 ± 0.04 % ID/g | % ID/g (72 h) Muscle (HT-29 tumor-bearing mice; Muscle, 72 h): 0.37 ± 0.34 % ID/g | % ID/g (120 h) Muscle (HT-29 tumor-bearing mice; Muscle, 120 h): 0.06 ± 0.02 % ID/g | % ID/g (1 h) Pancreas (HT-29 tumor-bearing mice; Pancreas, 1 h): 1.18 ± 0.61 % ID/g | % ID/g (4 h) Pancreas (HT-29 tumor-bearing mice; Pancreas, 4 h): 1.01 ± 0.71 % ID/g | % ID/g (24 h) Pancreas (HT-29 tumor-bearing mice; Pancreas, 24 h): 0.15 ± 0.06 % ID/g | % ID/g (72 h) Pancreas (HT-29 tumor-bearing mice; Pancreas, 72 h): 0.51 ± 0.5 % ID/g | % ID/g (120 h) Pancreas (HT-29 tumor-bearing mice; Pancreas, 120 h): 0.05 ± 0.02 % ID/g | % ID/g (1 h) Spleen (HT-29 tumor-bearing mice; Spleen, 1 h): 1.76 ± 0.41 % ID/g | % ID/g (4 h) Spleen (HT-29 tumor-bearing mice; Spleen, 4 h): 1.22 ± 0.16 % ID/g | % ID/g (24 h) Spleen (HT-29 tumor-bearing mice; Spleen, 24 h): 0.43 ± 0.09 % ID/g | % ID/g (72 h) Spleen (HT-29 tumor-bearing mice; Spleen, 72 h): 1.61 ± 1.35 % ID/g | % ID/g (120 h) Spleen (HT-29 tumor-bearing mice; Spleen, 120 h): 0.8 ± 0.32 % ID/g | % ID/g (1 h) Stomach (HT-29 tumor-bearing mice; Stomach, 1 h): 1.29 ± 0.31 % ID/g | % ID/g (4 h) Stomach (HT-29 tumor-bearing mice; Stomach, 4 h): 1.35 ± 0.68 % ID/g | % ID/g (24 h) Stomach (HT-29 tumor-bearing mice; Stomach, 24 h): 0.29 ± 0.11 % ID/g | % ID/g (72 h) Stomach (HT-29 tumor-bearing mice; Stomach, 72 h): 0.54 ± 0.53 % ID/g | % ID/g (120 h) Stomach (HT-29 tumor-bearing mice; Stomach, 120 h): 0.07 ± 0.01 % ID/g | % ID/g (1 h) Tumor (HT-29 tumor-bearing mice; Tumor, 1 h): 9.74 ± 2.44 % ID/g | % ID/g (4 h) Tumor (HT-29 tumor-bearing mice; Tumor, 4 h): 20.7 ± 2.21 % ID/g | % ID/g (24 h) Tumor (HT-29 tumor-bearing mice; Tumor, 24 h): 17.4 ± 4.53 % ID/g | % ID/g (72 h) Tumor (HT-29 tumor-bearing mice; Tumor, 72 h): 10.02 ± 6.15 % ID/g | % ID/g (120 h) Tumor (HT-29 tumor-bearing mice; Tumor, 120 h): 6.61 ± 1.12 % ID/g | clearance from other organs or tissues (SPECT/CT) [2]: rapid clearance | retention in tumors (SPECT/CT) [2]: sustained retention in tumors

— US20240287046A1, “COMPOUNDS AND RADIOLIGANDS FOR TARGETING NEUROTENSIN RECEPTOR AND USES THEREOF” (Full-Life Technologies HK Limited, priority 2022, published 2024)
